Data taken from Sander's compilation of Henry's law constants.

Key:
[1] = Henry solubility constant Hcp at 303 K (mol/(m3 Pa))
[2] = Henry solubility constant Hcp at 298.15 K (mol/(m3 Pa))
[3] = Henry solubility constant Hcp at 296 K (mol/(m3 Pa))
[4] = Henry solubility constant Hcp at 310 K (mol/(m3 Pa))
[5] = Henry solubility constant Hcp at 293 K (mol/(m3 Pa))
[6] = reference: McIntosh and Heffron (2000)
[7] = reference: Chiang et al. (1998)
[8] = reference: Pearson and McConnell (1975)
[9] = reference: Yurteri et al. (1987)
[10] = reference: Gossett et al. (1985)
[11] = reference: Lincoff and Gossett (1984)
[12] = reference: Warner et al. (1980)
[13] = reference: Bissonette et al. (1990)
[14] = reference: Robbins et al. (1993)
[15] = reference: Turner et al. (1996)
[16] = reference: Fendinger et al. (1989)

CCCOC(C)=O [propyl ethanoate]
Henry solubility constant Hcp at 303 K ([1]; reference: Richon et al. (1985)): 0.031
Henry solubility constant Hcp ([2]; reference: Fenclová et al. (2014)): 0.045
Henry solubility constant Hcp ([2]; reference: Kieckbusch and King (1979b)): 0.045

ClCCl [dichloromethane]
Henry solubility constant Hcp at 296 K ([3]; reference: David et al. (2000)): 0.0039
Henry solubility constant Hcp at 310 K [4, 6]: 0.0034
Henry solubility constant Hcp at 293 K [5, 7]: 0.0034
Henry solubility constant Hcp at 293 K [5, 8]: 0.0033
Henry solubility constant Hcp at 293 K ([5]; reference: Yu (1992)): 0.0044
Henry solubility constant Hcp at 293 K [5, 9]: 0.0052
Henry solubility constant Hcp ([2]; reference: Chen et al. (2012)): 0.0035
Henry solubility constant Hcp ([2]; reference: Gossett (1987)): 0.0046
Henry solubility constant Hcp [2, 10]: 0.0038
Henry solubility constant Hcp ([2]; reference: Hartkopf and Karger (1973)): 0.0042
Henry solubility constant Hcp [2, 11]: 0.0034
Henry solubility constant Hcp ([2]; reference: Lutsyk et al. (2005)): 0.0043
Henry solubility constant Hcp ([2]; reference: Park et al. (1997)): 0.0043
Henry solubility constant Hcp [2, 12]: 0.0031

Cc1ccccc1C [1,2-dimethylbenzene]
Henry solubility constant Hcp at 296 K ([3]; reference: Anderson (1992)): 0.0017
Henry solubility constant Hcp at 310 K [4, 6]: 0.00096
Henry solubility constant Hcp at 293 K [5, 9]: 0.0023
Henry solubility constant Hcp [2, 13]: 0.0021
Henry solubility constant Hcp ([2]; reference: Li et al. (2008)): 0.0023
Henry solubility constant Hcp [2, 14]: 0.002
Henry solubility constant Hcp ([2]; reference: Sieg et al. (2009)): 0.002
Henry solubility constant Hcp [2, 15]: 0.0014
Henry solubility constant Hcp ([2]; reference: Wasik and Tsang (1970)): 0.0029

ClC=C(Cl)Cl [trichloroethene]
Henry solubility constant Hcp at 296 K ([3]; reference: David et al. (2000)): 0.001
Henry solubility constant Hcp at 293 K [5, 7]: 0.0011
Henry solubility constant Hcp at 293 K [5, 8]: 0.0011
Henry solubility constant Hcp at 293 K [5, 9]: 0.00094
Henry solubility constant Hcp ([2]; reference: Bierwagen and Keller (2001)): 0.0012
Henry solubility constant Hcp [2, 13]: 0.001
Henry solubility constant Hcp ([2]; reference: Chen et al. (2012)): 0.001
Henry solubility constant Hcp ([2]; reference: Cooling et al. (1992)): 0.00097
Henry solubility constant Hcp ([2]; reference: Ervin et al. (1980)): 0.00074
Henry solubility constant Hcp ([2]; reference: Garbarini and Lion (1985)): 0.001
Henry solubility constant Hcp ([2]; reference: Gossett (1987)): 0.001
Henry solubility constant Hcp [2, 10]: 0.0011
Henry solubility constant Hcp ([2]; reference: Görgényi et al. (2002)): 0.00095
Henry solubility constant Hcp ([2]; reference: Heron et al. (1998)): 0.00093
Henry solubility constant Hcp ([2]; reference: Khalfaoui and Newsham (1994b)): 0.00095
Henry solubility constant Hcp ([2]; reference: Knauss et al. (2000)): 0.0011
Henry solubility constant Hcp [2, 11]: 0.00097
Henry solubility constant Hcp ([2]; reference: Munz and Roberts (1987)): 0.00096
Henry solubility constant Hcp ([2]; reference: Nielsen et al. (1994)): 0.0013
Henry solubility constant Hcp ([2]; reference: Park et al. (1997)): 0.00088
Henry solubility constant Hcp ([2]; reference: Peng and Wan (1997)): 0.0011
Henry solubility constant Hcp ([2]; reference: Peng and Wan (1998)): 0.0014
Henry solubility constant Hcp ([2]; reference: Ramachandran et al. (1996)): 0.00083
Henry solubility constant Hcp [2, 14]: 0.00094
Henry solubility constant Hcp ([2]; reference: Schoene and Steinhanses (1985)): 0.0009
Henry solubility constant Hcp ([2]; reference: Shimotori and Arnold (2003)): 0.001
Henry solubility constant Hcp ([2]; reference: Tancrède and Yanagisawa (1990)): 0.0013
Henry solubility constant Hcp [2, 15]: 0.00085
Henry solubility constant Hcp ([2]; reference: Vane and Giroux (2000)): 0.0011
Henry solubility constant Hcp [2, 12]: 0.00084

C=CC(C)(C)O [2-methyl-3-buten-2-ol]
Henry solubility constant Hcp at 303 K ([1]; reference: Iraci et al. (1999)): 0.64

CCOP(=S)(OCC)Oc1cc(C)nc(C(C)C)n1 [diazinon]
Henry solubility constant Hcp at 296 K ([3]; reference: Fendinger and Glotfelty (1988)): 88
Henry solubility constant Hcp at 296 K [3, 16]: 84
Henry solubility constant Hcp ([2]; reference: Feigenbrugel et al. (2004a)): 15

[N-]=[N+]=O [dinitrogen monoxide]
Henry solubility constant Hcp at 296 K ([3]; reference: Nunn (1958)): 0.00022
Henry solubility constant Hcp at 310 K ([4]; reference: Bachofen and Farhi (1971)): 0.00019
Henry solubility constant Hcp at 310 K ([4]; reference: Sy and Hasbrouck (1964)): 0.00014
Henry solubility constant Hcp ([2]; reference: Carius (1855)): 0.00025
Henry solubility constant Hcp ([2]; reference: Gabel and Schultz (1973)): 0.00025
Henry solubility constant Hcp ([2]; reference: Geffcken (1904)): 0.00024
Henry solubility constant Hcp ([2]; reference: Joosten and Danckwerts (1972)): 0.00024
Henry solubility constant Hcp ([2]; reference: Kunerth (1922)): 0.00024
Henry solubility constant Hcp ([2]; reference: Orcutt and Seevers (1937a)): 0.00024
Henry solubility constant Hcp ([2]; reference: Roth (1897)): 0.00023
Henry solubility constant Hcp ([2]; reference: Saidman et al. (1966)): 0.00024
Henry solubility constant Hcp ([2]; reference: Siebeck (1909)): 0.00024
Henry solubility constant Hcp ([2]; reference: Weiss and Price (1980)): 0.00024

C[Si](C)(C)O[Si](C)(C)C [hexamethyldisiloxane]
Henry solubility constant Hcp at 296 K ([3]; reference: David et al. (2000)): 7.7e-07
Henry solubility constant Hcp ([2]; reference: Xu and Kropscott (2014)): 1.3e-06

CCCN(CCC)c1c([N+](=O)[O-])cc(C(F)(F)F)cc1[N+](=O)[O-] [trifluralin]
Henry solubility constant Hcp at 296 K [3, 16]: 0.19
Henry solubility constant Hcp at 293 K ([5]; reference: Rice et al. (1997b)): 0.095
Henry solubility constant Hcp [2, 16]: 0.17
